≈ marks a conversion by molar mass, not a printed value.
Legend:
Enterococcus faecalis [1] = test: MIC, broth microdilution (CLSI); format: cell-based; conditions: Enterococcus faecalis
Method: (§1) The solvent for all of the compounds was deionized water (DIW), and all of the compounds dissolved in the solvent. The stock solutions were allowed to stand in DIW for one hour at room temperature prior to testing to allow time for auto-sterilization.
(§2) The test organisms were originally received from clinical sources, or from the American Type Culture Collection. When received, the organisms were sub-cultured onto an appropriate agar medium. Following incubation, colonies were harvested from these plates and cell suspensions prepared and frozen at −80° C. On the day prior to assay, a frozen vial of each culture was thawed and the contents were streaked for isolation onto either Tryptic Soy Agar (Becton Dickinson, Sparks, Md.) or Tryptic Soy Agar (Enhanced Hemolysis; Becton Dickinson) supplemented with 5% sheep blood for streptococci. The agar plates were incubated overnight at 35° C. Staphylococcus aureus ATCC 29213 and Enterococcus faecalis ATCC 29212 were included as quality control isolates in the assay.
(§3) The test medium for the broth microdilution testing was Mueller Hinton II broth (MHB II; BBL# 212322, Lot # 6024003, Becton Dickinson). The broth was prepared at 1.05× normal weight/volume to offset the 5% volume of the drug solution in the final test plates.
(§4) CLSI guidelines recommend that Mueller-Hinton II broth be adjusted to contain 50 mg/L of Ca^++ ions for proper daptomycin MIC results. Since Mueller-Hinton II broth has already been adjusted by the manufacturer to contain approximately 25 mg/L of Ca^++ ions, an additional 25 mg/L of Ca^++ ions was adjusted with 10 mg/mL of CaCl2.2H2O (Lot# 084K0215; Sigma-Aldrich) added at a rate of 0.1 mL/L of broth, for each desired increment of 1 mg/L. This supplemented Mueller-Hinton II broth was used only in wells containing daptomycin.
(§5) MIC values were determined using a broth microdilution method as recommended by the Clinical and Laboratory Standards Institute (Clinical and Laboratory Standards Institute^a. Methods for Dilution Antimicrobial Susceptibility Tests for Bacteria That Grow Aerobically; Approved Standard-Seventh Edition. Clinical and Laboratory Standards Institute document M7-A7 [ISBN 1-56238-587-9]. Clinical and Laboratory Standards Institute, 940 West Valley Road, Suite 1400, Wayne, Pa. 19087-1898 USA, 2006). Automated liquid handlers (Multidrop 384, Labsystems, Helsinki, Finland; Biomek 2000 and Multimek 96, Beckman Coulter, Fullerton Calif.) were used to conduct serial dilutions and make liquid transfers.
(§6) Wells of two standard 96-well microdilution plates (Falcon 3918; Becton Dickinson) were filled with 150 μL of […] using the Multidrop 384. These plates were used to prepare the drug “mother plates” that provided the serial drug dilutions for replicate “daughter plates”. The Biomek 2000 was used to transfer 150 μl of each stock solution from the wells of column 1 of a deep well plate to the corresponding wells in column 1 of the mother plate and to make eleven 2-fold serial dilutions in the mother plates. The wells of column 12 contained no drug and were the organism growth control wells. Each mother plate has the capacity to create a total of 12 daughter plates.
(§7) The daughter plates were loaded with 180 μL of one of the media described above using the Multidrop 384. The wells of the daughter plates ultimately contained 180 μL of MHB II, 10 μL of drug solution, and 10 μL of bacterial inoculum prepared in broth appropriate to the test organism (1.05×). The daughter plates were prepared on the Multimek 96 instrument, which transferred 10 μL of drug solution from each well of the mother plate to each corresponding well of each daughter plate in a single step. […]

[2] = system: Staphylococcus epidermidis; test: MIC, broth microdilution (CLSI); format: cell-based; conditions: Staphylococcus epidermidis
Method: as §1, §2, §3, §4, §5, §6, §7

Enterococcus faecium = test: MIC, broth microdilution (CLSI); format: cell-based; conditions: Enterococcus faecium
Method: (§8) The stock solutions were allowed to stand in DIW for one hour at room temperature prior to testing to allow time for auto-sterilization.
as §2, §3, §4, §5, §6
(§9) The daughter plates were loaded with 180 μL of one of the media described above using the Multidrop 384. The wells of the daughter plates ultimately contained 180 μL of MHB II, 10 μL of drug solution, and 10 μL of bacterial inoculum prepared in broth appropriate to the test organism (1.05×). The daughter plates were prepared on the Multimek 96 instrument, which transferred 10 μL of drug solution from each well of the mother plate to each corresponding well of each daughter plate in a single step.

Staphylococcus aureus [3] = test: MIC, broth microdilution (CLSI); format: cell-based; conditions: Staphylococcus aureus
Method: as §8, §2, §3, §4, §5, §6, §9

Streptococcus pneumoniae = test: MIC, broth microdilution (CLSI); format: cell-based; conditions: Streptococcus pneumoniae
Method: as §1, §2, §3
For streptococci, lysed horse blood (Lot # H88621; Cleveland Scientific, Bath, Ohio) was added to the MHB II at a final concentration of 2%. […]
as §5, §6, §9
Standardized inoculum of each organism was prepared following Clinical and Laboratory Standards Institute (Clinical and Laboratory Standards Institute^b. Performance Standards for Antimicrobial Susceptibility Testing; Sixteenth Informational Supplement. CLSI document M100-S16 [ISBN 1-56238-588-7]. Clinical and Laboratory Standards Institute, 940 West Valley Road, Suite 1400, Wayne, Pa. 19087-1898 USA, 2006) methods. The inoculum for each organism was dispensed into sterile reservoirs divided by length (Beckman Coulter), and the Biomek 2000 was used to inoculate the plates. […]

Streptococcus pyogenes = test: MIC, broth microdilution (CLSI); format: cell-based
Method: as §1, §2, §3
For streptococci, lysed horse blood (Lot # H88621; Cleveland Scientific, Bath, Ohio) was added to the MHB II at a final concentration of 2%.
as §4, §5, §6, §7

Enterococcus faecalis [4] = conditions: quality control range for Enterococcus faecalis ATCC 29212 (# 101); cited from earlier work
Staphylococcus aureus [5] = conditions: quality control range for Staphylococcus aureus ATCC 29213 (# 100); cited from earlier work

Compound: CN[C@H](CC(C)C)C(=O)N[C@H]1C(=O)N[C@@H](CC(N)=O)C(=O)N[C@H]2C(=O)N[C@H]3C(=O)N[C@H](C(=O)N[C@H](C(=O)O)c4cc(O)cc(O)c4-c4cc3ccc4O)[C@H](O)c3ccc(c(Cl)c3)Oc3cc2cc(c3O[C@@H]2O[C@H](CO)[C@@H](O)[C@H](O)[C@H]2O[C@H]2C[C@](C)(N)[C@H](O)[C@H](C)O2)Oc2ccc(cc2Cl)[C@H]1O [Vancomycin, vancomycin]
- MIC (Enterococcus faecalis [1]; ATCC29212, Enterococcus faecalis Micromyx # 101, VSE, CLSI QC strain (ATCC 29212)): 4 µg/mL (≈ 2.76 µM)
- MIC (Enterococcus faecalis [1]; Enterococcus faecalis Micromyx # 413, LZD^R from res. dev. or other): 2 µg/mL (≈ 1.38 µM)
- MIC (Enterococcus faecalis [1]; Enterococcus faecalis Micromyx # 486, Van A): > 128 µg/mL
- MIC (Enterococcus faecalis [1]; Enterococcus faecalis Micromyx # 1088, Van B): 128 µg/mL (≈ 88.3 µM)
- MIC [2]: 2 µg/mL (≈ 1.38 µM)
- MIC ([2]; MRSE): 4 µg/mL (≈ 2.76 µM)
- MIC (Enterococcus faecium; Enterococcus faecium Micromyx # 750, Van^S): 1 µg/mL (≈ 0.69 µM)
- MIC (Enterococcus faecium; Enterococcus faecium Micromyx # 752, Van A): > 128 µg/mL
- MIC (Enterococcus faecium; Enterococcus faecium Micromyx # 1120, Van B): 32 µg/mL (≈ 22.1 µM)
- MIC (Enterococcus faecium; Enterococcus faecium Micromyx # 1721, DAP^R): > 128 µg/mL
- MIC (Staphylococcus aureus [3]; ATCC 29213 / MSSA, Staphylococcus aureus Micromyx # 100, MSSA, CLSI QC strain (ATCC 29213)): 2 µg/mL (≈ 1.38 µM)
- MIC (Staphylococcus aureus [3]; MRSA, Staphylococcus aureus Micromyx # 1004, MRSA, FA^R): 1 µg/mL (≈ 0.69 µM)
- MIC (Staphylococcus aureus [3]; MRSA, Staphylococcus aureus Micromyx # 1730, Community-acquired MRSA): 2 µg/mL (≈ 1.38 µM)
- MIC (Staphylococcus aureus [3]; MSSA, Staphylococcus aureus Micromyx # 1002, MSSA, macrolide^R): 1 µg/mL (≈ 0.69 µM)
- MIC (Staphylococcus aureus [3]; Staphylococcus aureus Micromyx # 106, RA^R): 1 µg/mL (≈ 0.69 µM)
- MIC (Staphylococcus aureus [3]; Staphylococcus aureus Micromyx # 1016, FA^R): 1 µg/mL (≈ 0.69 µM)
- MIC (Staphylococcus aureus [3]; Staphylococcus aureus Micromyx # 1651, LZD^R clinical isolate): 1 µg/mL (≈ 0.69 µM)
- MIC (Staphylococcus aureus [3]; Staphylococcus aureus Micromyx # 1727, GM^R): 1 µg/mL (≈ 0.69 µM)
- MIC (Staphylococcus aureus [3]; Staphylococcus aureus Micromyx # 1731, CHL^R): 1 µg/mL (≈ 0.69 µM)
- MIC (Staphylococcus aureus [3]; VISA, Staphylococcus aureus Micromyx # 1723, VISA): 8 µg/mL (≈ 5.52 µM)
- MIC (Streptococcus pneumoniae; Streptococcus pneumoniae Micromyx # 374, Wild type): 0.5 µg/mL (≈ 0.345 µM)
- MIC (Streptococcus pneumoniae; Streptococcus pneumoniae Micromyx # 375, parC, gyrB): 0.5 µg/mL (≈ 0.345 µM)
- MIC (Streptococcus pneumoniae; Streptococcus pneumoniae Micromyx # 376, parC, gyrA): 0.25 µg/mL (≈ 0.173 µM)
- MIC (Streptococcus pneumoniae; Streptococcus pneumoniae Micromyx # 379, parC, gyrA, gyrB): 0.5 µg/mL (≈ 0.345 µM)
- MIC (Streptococcus pneumoniae; Streptococcus pneumoniae Micromyx # 927, mef(A)): 0.5 µg/mL (≈ 0.345 µM)
- MIC (Streptococcus pneumoniae; Streptococcus pneumoniae Micromyx # 928, erm(B)): 0.5 µg/mL (≈ 0.345 µM)
- MIC (Streptococcus pyogenes; Streptococcus pyogenes): 0.5 µg/mL (≈ 0.345 µM)
- MIC (Streptococcus pyogenes; Streptococcus pyogenes Micromyx # 942, macrolide^R): 0.5 µg/mL (≈ 0.345 µM)
- MIC, CLSI Recommended Range (Enterococcus faecalis [4]): 1 to 4 µg/mL
- MIC, CLSI Recommended Range (Staphylococcus aureus [5]): 0.5 to 2 µg/mL
